{"source": "paper PMC8101618", "about": "“Comparable Initial Engagement of Intracellular Signaling Pathways by Parathyroid Hormone Receptor Ligands Teriparatide, Abaloparatide, and Long‐Acting PTH” (JBMR Plus, 2021)", "key": {"[1]": {"test_system": "SIK", "conditions": "cultured osteocytes and in vivo; cited from earlier work", "from_the_text": "Although it is well‐established that PTH‐mediated increases in bone formation require actions in osteocytes,^( ^19 , ^23 ^) the signaling events downstream of the PTH1R in osteocytes have remained elusive. We recently described a new signaling pathway that relays information from the PTH1R to the nucleus in osteocytes.^( ^24 ^) A crucial step in this cascade involves cyclic AMP (cAMP)‐mediated inhibition of salt inducible kinase 2 (SIK2). Importantly, PTH1R‐induced SIK2 phosphorylation/inactivation occurs rapidly (within 1 min of receptor engagement by hPTH (1‐34)) and then diminishes.^( ^24 ^ ..."}, "[2]": {"test_system": "human PTH1R-pHluorin2-GFP", "assay": "internalization using GFP^pHs fluorescence (GPG-10 cells)", "assay_type": "cell-based", "conditions": "continuous treatment 90 min, range of doses; ratio 485/405 nm excitation, emission 535 nm; pH 7.4; n = 6 independent experiments", "procedure": "Receptor internalization was assessed in the HEK293 cell line stably transfected with human PTH1R‐pHluorin2‐GFP (GPG‐10 cells).^( ^33 , ^34 ^) Confluent monolayers of cells in black‐walled, 96‐well plates were incubated in HBSS with BSA (0.1% wt/vol) and HEPES buffer (pH 7.4, 10mM). Peptides were added and wells were analyzed by recording fluorescence readouts with excitation at 485 or 405 nm and emission at 535 nm. Data were analyzed as a ratio of fluorescence intensity following excitation at 485/405 nm over the course of 90 min, and the area under the curve (AUC) values for each time course were plotted as a function of ligand concentration.\nA complementary approach was used to visualize ligand‐dependent colocalization of PTH1R and β‐arrestin2. For this, β‐arrestin2‐YFP–expressing cells were transiently transduced with a plasmid encoding a dsRed‐tagged version of human PTH1R. […] In that study, multiple ligand concentrations were used and the responses were assessed at the peak response time, which was generally ~5 min after ligand addition.^( ^42 ^) To explore differences in receptor internalization in more detail, we used constructs where the PTH receptor is fused to a pH‐sensitive GFP variant (GFP^pHs) which changes its fluorescent signal in acidic endosomes. […]"}, "[3]": {"test_system": "PTH1R", "conditions": "cited from earlier work", "from_the_text": "Recruitment of the intracellular scaffolding proteins β‐arrrestin1/2 is a well‐characterized step that occurs following activation and GRK‐dependent phosphorylation in multiple G‐Protein‐Coupled Receptors (GPCRs) signaling systems.^( ^39 ^) β‐arrestin recruitment is traditionally thought to lead to signal termination due to receptor internalization."}, "[4]": {"test_system": "human PTH1R", "assay": "β-arrestin2-YFP clustering in GBR-24 cells", "assay_type": "cell-based", "conditions": "TMR-labeled ligands 30nM, 15 min, room temperature; β-arrestin2-YFP HEK293 cells (GBR-24) transiently transfected with human PTH1R", "procedure": "Recruitment of β‐arrestin was assessed in HEK293 cells stably transfected to express β‐arrestin2‐YFP^( ^36 ^) and glosensor (GBR‐24 cells)^( ^34 ^) and transiently transfected to express the hPTH1R or mDsRed‐hPTH1R in which the monomeric Discosoma sp. red fluorescent protein is inserted in the E2 region of the receptor's extracellular domain. Cells were treated with each PTH1R ligand and imaged by fluorescent microscopy as described above (see 2.4 Internalization). The quantification of colocalizations between β‐arrestin2YFP and TMR‐ligands were performed by ImageJ software (NIH, Bethesda, MD, USA; https://imagej.nih.gov/ij/) using Just Another Colocalization Plugin (JACoP) and indicated as cytofluorograms.\nRecruitment of the intracellular scaffolding proteins β‐arrrestin1/2 is a well‐characterized step that occurs following activation and GRK‐dependent phosphorylation in multiple G‐Protein‐Coupled Receptors (GPCRs) signaling systems.^( ^39 ^) β‐arrestin recruitment is traditionally thought to lead to signal termination due to receptor internalization. […] For this, HEK293 cells stably expressing YFP‐tagged β‐arrestin2 (GBR‐24 cells) were transiently transfected with human PTH1R cDNA, then treated with TMR‐labeled PTH ligands at 30nM for 15 min at room temperature. Thereafter, cells were rinsed, fixed, and viewed by epifluorescent microscopy."}, "[5]": {"test_system": "HDAC4 S246, HDAC5 S259", "assay": "HDAC4/5 phosphorylation immunoblotting in Ocy454 cells", "assay_type": "cell-based, murine", "conditions": "10nM, 1 hour (Supplementary Fig. S1)", "procedure": "For immunoblotting, cells were prepared as described.^( ^37 ^) Whole cell lysates were prepared using TNT (Tris‐NaCl‐Tween buffer, 20mM Tris‐HCl pH 8, 200mM NaCl, 0.5% Triton X‐100 containing protease inhibitor [PI], 1mM NaF, 1mM dithiothreitol [DTT], 1mM vanadate). Adherent cells were washed with ice cold PBS, then scraped into TNT buffer on ice. Material was then transferred into Eppendorf tubes kept on ice, vortexed at top speed for 30 s, then centrifuged at 14,000g for 6 min at 4°C. For immunoblotting, lysates or immunoprecipitates were separated by SDS‐PAGE and proteins were transferred to nitrocellulose. […] The next day, membranes were washed, incubated with appropriate horseradish peroxidase (HRP)‐coupled secondary antibodies, and signals were detected with ECL Western Blotting Substrate (Pierce, Rockford, IL, USA), ECL Plus Western Blotting Substrate (Pierce), or SuperSignal West Femto Maximum Sensitivity Substrate (Thermo Scientific, Waltham, MA, USA). […] Quantification was performed using ImageJ.\nIn cells, SIKs are constitutively active kinases due to upstream LKB1 activation loop phosphorylation,^( ^45 ^) and therefore constitutively phosphorylate their substrates. […] We assessed the effects of different PTH ligands on class IIa HDAC and CRTC phosphorylation at well‐documented SIK phosphorylation sites: HDAC4 S246, HDAC5 S259, and CRTC2 S275. […]"}}}
{"compound": "COc1ccc(N2C(=O)N(c3c(C)cccc3Cl)Cc3cnc(Nc4ccc(C5CCN(C)CC5)cc4OC)nc32)nc1", "note": "[YKL‐05‐099]", "values": [{"measurement": "PTH-mimicking action", "setting": "[1]", "value": "mimic PTH action in cultured osteocytes and in vivo"}]}
{"compound": "LNleHQLdWKWIQDARRRAWLHKLIAEIHTAEI.NH2 [PTH (7‐36), N‐truncated LA‐PTH analog used as a negative control]", "values": [{"measurement": "PTH1R internalization (AUC of GFP^pHs fluorescence ratio)", "setting": "[2]", "value": "internalization‐deficient"}, {"measurement": "intracellular signaling or PTH1R internalization", "setting": "[3]", "value": "does not induce intracellular signaling or PTH1R internalization"}, {"measurement": "β-arrestin2 clustering/recruitment", "setting": "[4]", "value": "fails to stimulate β‐arrestin2 recruitment"}, {"measurement": "SIK substrate phosphorylation and gene expression changes", "setting": "[5]", "value": "completely inactive"}]}
